Results as given in patent publication US12187742B2 (XRAD Therapeutics, Inc., priority 2018, dated 2025).
Where a name gives a salt, the structure may show the parent alone.

Tests used:
DNA-PK = DNA-PK (Homo sapiens (Human), UniProt P78527); test: DNA-PK Enzyme-Linked Immunosorbent Assay (phosphorylation of GST-p53 (1-101) peptide); assay type: biochemical; details: ELISA, ATP 20 μM
In short: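 Inhibition measured by 450 nm absorbance after HRP/TMB detection of phospho-Ser15 on immobilized GST-p53 (1-101). The kinase reaction used 0.1 μg/mL DNA-PK and 20 μM ATP, 1 h at 25 °C. Ten 3-fold compound dilutions, top final concentration 100 nM.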

ATM = ATM (Homo sapiens (Human), UniProt Q13315); test: ATM in Cell Western Assay (pKAP1 in etoposide-treated MCF-7 cells); assay type: cell-based; details: MCF-7 cells, etoposide 100 μM, 1 hr, pKAP1 readout
In short: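 After paraformaldehyde fixation and Triton X-100 permeabilization, immunostained plates were read by infrared scanning (ODYSSEY CLx). Compound was given as 10 doses, 3-fold dilutions from a 1 μM final top concentration.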

Sequence of ATM (Q13315 whole entry): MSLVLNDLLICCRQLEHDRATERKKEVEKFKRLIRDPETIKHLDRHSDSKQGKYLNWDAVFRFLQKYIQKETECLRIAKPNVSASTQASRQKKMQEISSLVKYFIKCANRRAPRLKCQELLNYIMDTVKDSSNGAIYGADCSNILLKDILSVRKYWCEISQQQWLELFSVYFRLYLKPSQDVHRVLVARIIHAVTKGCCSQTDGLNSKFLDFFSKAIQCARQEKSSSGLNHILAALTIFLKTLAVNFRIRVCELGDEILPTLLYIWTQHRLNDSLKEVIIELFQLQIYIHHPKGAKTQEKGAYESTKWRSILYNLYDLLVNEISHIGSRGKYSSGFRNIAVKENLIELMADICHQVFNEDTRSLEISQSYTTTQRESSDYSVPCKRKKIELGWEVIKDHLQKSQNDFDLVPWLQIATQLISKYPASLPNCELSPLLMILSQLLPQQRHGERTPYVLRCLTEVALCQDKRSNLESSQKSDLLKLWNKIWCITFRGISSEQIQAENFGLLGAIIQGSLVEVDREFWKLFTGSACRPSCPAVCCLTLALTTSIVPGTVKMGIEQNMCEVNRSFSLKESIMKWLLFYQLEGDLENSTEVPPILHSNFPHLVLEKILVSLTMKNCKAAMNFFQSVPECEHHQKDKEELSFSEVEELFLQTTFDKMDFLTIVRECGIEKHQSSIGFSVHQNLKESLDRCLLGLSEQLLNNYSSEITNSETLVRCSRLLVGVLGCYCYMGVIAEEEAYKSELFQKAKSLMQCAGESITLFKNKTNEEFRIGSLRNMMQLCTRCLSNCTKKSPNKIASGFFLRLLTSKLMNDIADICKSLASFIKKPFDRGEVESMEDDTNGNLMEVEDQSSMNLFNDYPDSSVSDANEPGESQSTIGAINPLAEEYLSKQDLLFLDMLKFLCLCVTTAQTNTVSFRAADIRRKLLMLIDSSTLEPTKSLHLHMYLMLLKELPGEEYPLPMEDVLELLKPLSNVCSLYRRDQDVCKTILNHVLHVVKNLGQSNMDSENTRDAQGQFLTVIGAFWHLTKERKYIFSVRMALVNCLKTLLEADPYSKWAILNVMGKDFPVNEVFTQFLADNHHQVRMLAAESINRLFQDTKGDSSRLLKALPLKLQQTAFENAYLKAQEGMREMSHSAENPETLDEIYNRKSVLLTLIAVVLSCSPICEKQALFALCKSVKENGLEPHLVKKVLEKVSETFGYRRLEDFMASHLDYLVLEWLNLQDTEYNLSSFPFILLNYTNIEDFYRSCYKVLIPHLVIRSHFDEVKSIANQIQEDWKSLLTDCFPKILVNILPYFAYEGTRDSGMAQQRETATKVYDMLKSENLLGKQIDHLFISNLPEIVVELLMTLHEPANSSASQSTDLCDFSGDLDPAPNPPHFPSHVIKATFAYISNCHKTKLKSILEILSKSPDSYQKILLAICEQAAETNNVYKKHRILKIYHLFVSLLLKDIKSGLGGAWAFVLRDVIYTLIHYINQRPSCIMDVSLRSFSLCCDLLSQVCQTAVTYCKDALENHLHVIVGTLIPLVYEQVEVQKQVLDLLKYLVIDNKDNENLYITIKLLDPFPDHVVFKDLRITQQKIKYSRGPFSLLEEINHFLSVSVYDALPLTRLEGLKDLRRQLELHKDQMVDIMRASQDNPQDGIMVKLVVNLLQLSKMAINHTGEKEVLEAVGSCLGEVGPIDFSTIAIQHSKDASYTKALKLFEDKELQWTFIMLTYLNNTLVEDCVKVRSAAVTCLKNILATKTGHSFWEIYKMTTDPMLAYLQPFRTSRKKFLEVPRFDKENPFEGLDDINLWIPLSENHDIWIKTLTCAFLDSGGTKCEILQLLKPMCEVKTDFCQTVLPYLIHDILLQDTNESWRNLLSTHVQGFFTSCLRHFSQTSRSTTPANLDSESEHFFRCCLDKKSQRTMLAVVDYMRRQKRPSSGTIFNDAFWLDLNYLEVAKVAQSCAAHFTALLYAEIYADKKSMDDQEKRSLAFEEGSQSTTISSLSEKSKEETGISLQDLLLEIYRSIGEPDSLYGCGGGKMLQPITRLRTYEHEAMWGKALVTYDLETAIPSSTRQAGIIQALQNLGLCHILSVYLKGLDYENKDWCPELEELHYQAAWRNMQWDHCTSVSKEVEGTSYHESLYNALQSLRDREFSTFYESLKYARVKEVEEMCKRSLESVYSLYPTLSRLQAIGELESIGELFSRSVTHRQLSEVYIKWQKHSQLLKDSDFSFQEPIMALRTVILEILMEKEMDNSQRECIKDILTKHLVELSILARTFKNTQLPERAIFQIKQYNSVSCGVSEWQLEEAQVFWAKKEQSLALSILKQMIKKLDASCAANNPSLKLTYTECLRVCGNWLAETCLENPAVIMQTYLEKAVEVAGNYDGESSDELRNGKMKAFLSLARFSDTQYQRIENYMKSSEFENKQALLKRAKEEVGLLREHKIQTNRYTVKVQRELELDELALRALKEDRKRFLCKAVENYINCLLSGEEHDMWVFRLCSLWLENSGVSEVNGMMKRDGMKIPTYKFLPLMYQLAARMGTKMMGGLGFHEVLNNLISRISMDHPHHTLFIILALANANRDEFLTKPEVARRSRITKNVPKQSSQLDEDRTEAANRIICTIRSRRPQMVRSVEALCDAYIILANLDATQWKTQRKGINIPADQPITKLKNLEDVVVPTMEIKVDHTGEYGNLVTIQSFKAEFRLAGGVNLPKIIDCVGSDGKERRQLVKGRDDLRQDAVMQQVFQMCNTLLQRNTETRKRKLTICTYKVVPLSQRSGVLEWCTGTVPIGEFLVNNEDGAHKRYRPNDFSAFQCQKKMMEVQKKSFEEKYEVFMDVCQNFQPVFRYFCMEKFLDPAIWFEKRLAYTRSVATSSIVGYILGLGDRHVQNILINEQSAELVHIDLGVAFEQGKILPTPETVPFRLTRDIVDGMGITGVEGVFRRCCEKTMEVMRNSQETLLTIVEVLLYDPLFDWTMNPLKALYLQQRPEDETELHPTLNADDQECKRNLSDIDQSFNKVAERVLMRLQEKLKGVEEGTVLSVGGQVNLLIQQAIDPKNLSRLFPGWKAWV

Compound | IC50 (DNA-PK) | IC50 (ATM)
Cc1cc(S(=O)(=O)Nc2cc(-c3ccc4ncc5c(c4c3)C3(CCC3)C(=O)N5C)cnc2OCCCN2CCCCC2)sn1 [Example 194, 3-Methyl-N-(5-(3′-methyl-2′-oxo-2′,3′-dihydrospiro[cyclobutane-1,1′-pyrrolo[2,3-c]quinolin]-8′-yl)-2-(3-(piperidin-1-yl)propoxy)pyridin-3-yl)isothiazole-5-sulfonamide hydrochloride] | < 0.5 nM | 1 to 100 nM
CN1C(=O)C2(CCC2)c2c1cnc1ccc(-c3cnc(OCCCN4CCCCC4)c(NS(=O)(=O)c4ccccc4F)c3)cc21 [Example 195, 2-Fluoro-N-(5-(3′-methyl-2′-oxo-2′,3′-dihydrospiro[cyclobutane-1,1′-pyrrolo[2,3-c]quinolin]-8′-yl)-2-(3-(piperidin-1-yl)propoxy)pyridin-3-yl) benzenesulfonamide hydrochloride] | 0.5 to 1 nM | 1 to 100 nM
CN1C(=O)C2(CCC2)c2c1cnc1ccc(-c3cnc(OCCCN4CCCCC4)c(NS(=O)(=O)c4cc(F)cc(Cl)c4)c3)cc21 [Example 196, 3-Chloro-5-fluoro-N-(5-(3′-methyl-2′-oxo-2′,3′-dihydrospiro[cyclobulane-1,1′-pyrrolo[2,3-c]quinolin]-8′-yl)-2-(3-(piperidin-1-yl)propoxy)pyridin-3-yl)benzenesulfonamide hydrochloride] | 1 to 100 nM | 1 to 100 nM
CN1C(=O)C2(CCC2)c2c1cnc1ccc(-c3cnc(OCCCN4CCCCC4)c(NS(=O)(=O)C4CC4)c3)cc21 [Example 197, N-(5-(3-Methyl-2′-oxo-2′,3′-dihydrospiro[cyclobulane-1,1′-pyrrolo[2,3-c]quinolin]-8′-yl)-2-(3-(piperidin-1-yl)propoxy)pyridin-3-yl)cyclopropanesulfonamide hydrochloride] | 0.5 to 1 nM | 1 to 100 nM
Cc1ccc(S(=O)(=O)Nc2cc(-c3ccc4ncc5c(c4c3)C3(CCC3)C(=O)N5C)cnc2N2CCC(N3CCCCC3)CC2)cn1 [Example 198, N-(2-([1,4′-Bipiperidin]-1′-yl)-5-(3′-methyl-2′-oxo-2′,3′-dihydrospiro[cyclobutane-1,1′-pyrrolo[2,3-c]quinolin]-8′-yl)pyridin-3-yl)-6-methylpyridine-3-sulfonamide hydrochloride] | < 0.5 nM | 1 to 100 nM
CN1C(=O)C2(CCC2)c2c1cnc1ccc(-c3cnc(OCCCN4CCCCC4)c(NS(=O)(=O)c4cncs4)c3)cc21 [Example 199, N-(5-(3′-Methyl-2′-oxo-2′,3′-dihydrospiro[cyclobutane-1,1′-pyrrolo[2,3-c]quinolin]-8′-yl)-2-(3-(piperidin-1-yl)propoxy)pyridin-3-yl)thiazole-5-sulfonamide hydrochloride] | < 0.5 nM | 1 to 100 nM
CN1CCN(S(=O)(=O)Nc2cc(-c3ccc4ncc5c(c4c3)C3(CCC3)C(=O)N5C)cnc2OCCCN2CCCCC2)CC1 [Example 200] | < 0.5 nM | 0.5 to 1 nM
Cc1ccc(S(=O)(=O)Nc2cc(-c3ccc4ncc5c(c4c3)C3(CCC3)C(=O)N5C)cnc2N2CCN(C)CC2)cn1 [Example 201, 6-Methyl-N-(5-(3′-methyl-2′-oxo-2′,3′-dihydrospiro[cyclobutane-1,1′-pyrrolo[2,3-c]quinolin]-8′-yl)-2-(4-methylpiperazin-1-yl)pyridin-3-yl)pyridine-3-sulfonamide] | < 0.5 nM | 1 to 100 nM
CN1C(=O)C2(CCC2)c2c1cnc1ccc(-c3cnc(OCCCN4CCCCC4)c(NS(=O)(=O)N4CCNCC4)c3)cc21 [Example 202, N-(5-(3′-Methyl-2′-oxo-2′,3′-dihydrospiro[cyclobutane-1,1′-pyrrolo[2,3-c]quinolin]-8′-yl)-2-(3-(piperidin-1-yl)propoxy)pyridin-3-yl)piperazine-1-sulfonamide] | < 0.5 nM | 0.5 to 1 nM
CN1C(=O)C2(CCC2)c2c1cnc1ccc(-c3cnc(N4CCC(N5CCCCC5)CC4)c(NS(=O)(=O)c4ccccc4F)c3)cc21 [Example 203] | 0.5 to 1 nM | 1 to 100 nM
Cc1ccc(S(=O)(=O)Nc2cc(-c3ccc4ncc5c(c4c3F)C3(CCC3)C(=O)N5C)cnc2OCCCN(C)C)cc1 [Example 204, N-(2-(3-(Dimethylamino)propoxy)-5-(9′-fluoro-3′-methyl-2′-oxo-2′,3′-dihydrospiro[cyclobutane-1,1′-pyrrolo[2,3-c]quinolin]-8′-yl)pyridin-3-yl)-4-methylbenzenesulfonamide] | 0.5 to 1 nM | 1 to 100 nM
CN(C)CCCOc1ncc(-c2ccc3ncc4c(c3c2)C2(CCC2)C(=O)N4C)cc1NS(=O)(=O)C1COC1 [Example 205, N-(2-(3-(Dimethylamino)propoxy)-5-(3′-methyl-2′-oxo-2′,3′-dihydrospiro[cyclobutane-1,1′-pyrrolo[2,3-c]quinolin]-8′-yl)pyridin-3-yl)oxetane-3-sulfonamide] | < 0.5 nM | 1 to 100 nM
CN1C(=O)C2(CCC2)c2c1cnc1ccc(-c3cnc(N4CCC(N5CCCCC5)CC4)c(NS(=O)(=O)c4ccc(F)cc4F)c3)cc21 [Example 206, N-(2-([1,4′-Bipiperidin]-1′-yl)-5-(3′-methyl-2′-oxo-2′,3′-dihydrospiro[cyclobutane-1,1′-pyrrolo[2,3-c]quinolin]-8′-yl)pyridin-3-yl)-2,4-difluorobenzenesulfonamide hydrochloride] | < 0.5 nM | 1 to 100 nM
CN1C(=O)C2(CCC2)c2c1cnc1ccc(-c3cnc(N4CCC(N5CCCCC5)CC4)c(NS(=O)(=O)C4CC4)c3)cc21 [Example 207, N-(2-([1,4′-Bipiperidin]-1′-yl)-5-(3′-methyl-2′-oxo-2′,3′-dihydrospiro[cyclobutane-1,1′-pyrrolo[2,3-c]quinolin]-8′-yl)pyridin-3-yl)cyclopropanesulfonamide hydrochloride] | < 0.5 nM | 1 to 100 nM
CN1C(=O)C2(CCC2)c2c1cnc1ccc(-c3cnc(N4CCC(N5CCCCC5)CC4)c(NS(=O)(=O)N(C)C)c3)cc21 [Example 208, 8′-(6-{[1,4′-Bipiperidine]-1′-yl}-5-[(dimethylsulfamoyl)amino]pyridin-3-yl)-3′-methyl-2′,3′-dihydrospiro[cyclobutane-1,1′-pyrrolo[2,3-c]quinoline]-2′-one] | < 0.5 nM | 1 to 100 nM
CCN(C)S(=O)(=O)Nc1cc(-c2ccc3ncc4c(c3c2)C2(CCC2)C(=O)N4C)cnc1N1CCC(N2CCCCC2)CC1 [Example 212, 8′-(6-{[1,4′-Bipiperidine]-1′-yl}-5-[(ethyl(methyl)sulfamoyl)amino}pyridin-3-yl)-3′-methyl-2′,3′-dihydrospiro[cyclobutane-1,1′-pyrrolo[2,3-c]quinoline]-2′-one] | 1 to 100 nM | 1 to 100 nM
CN1C(=O)C2(CC2)c2c1cnc1ccc(-c3cnc(N4CCC(N5CCCCC5)CC4)c(NS(=O)(=O)c4ccccc4)c3)cc21 [Example 213, N-(2-([1,4′-Bipiperidin]-1′-yl)-5-(3′-methyl-2′-oxo-2′,3′-dihydrospiro[cyclopropane-1,1′-pyrrolo[2,3-c]quinolin]-8′-yl)pyridin-3-yl)benzenesulfonamide methanesulfonate] | 1 to 100 nM | 1 to 100 nM
CCN(C)S(=O)(=O)Nc1cc(-c2ccc3ncc4c(c3c2)C2(CC2)C(=O)N4C)cnc1N1CCC(N2CCCCC2)CC1 [Example 214] | 0.5 to 1 nM | 0.5 to 1 nM
